Data: US7456294B2, “Hairpin polyamide” (Japan Science and Technology Agency, priority 2002, dated 2008)
“Also recorded” adds a separate entry of the source.

Columns and labels:
[1] = system: DNA fragment of 450 base pairs; conditions: 450 base pair DNA fragment; cited from earlier work
long chain DNA (pUC-I′) = experiment: Long chain DNA (pUC-I′) alkylation, 24 hours, sequence gel electrophoresis; format: biochemical; conditions: for sequence-specific alkylation of long chain DNA: 100 nM to 12.5 nM, 23° C.
Description: The reaction of the hairpin polyamides 1 and 12 to 14 with a DNA was investigated using a long chain DNA (pUC-I′). The alkylation reaction was continued for 24 hours and a sequence gel electrophoresis was conducted for the analysis.
On the other hand, the alkylation of ImPyPy-γ-ImPyPyDu86 (12) was not observed at 100 nM to 12.5 nM (lanes 5 to 8). […] In the description made above or below, a -γ- means a γ-aminobutyric acid residue.
A DNA fragment (pUC-I′) was synthesized by a PCR method using pUC 18 as a template together with a 5′-texas red-labeled 20 base pair primer: 5′-[…]-3′ (pUC 18 forward, 780-799) and 20 base pair primer: 5′-[…]-3′ (pUC18 reverse, 1459-1478). The resultant DNA fragments were purified by filtration through a Suprec-02, and then examined for the UV absorption to determine the respective concentrations.
(§1) To 10 μl in total of 5 mM sodium phosphate buffer (pH7.0), a standard reaction solution containing 10 nM of the DNA fragment (pUC-I′) whose 5′-terminal had been labeled with the texas red, 10% (v/v) DMF and an agent at the concentration indicated in FIG. 1 was added in a microcentrifugation tube (Eppendorf) and allowed to stand for 24 hours at 23° C.
(§2) A bovine thymus DNA (1 mM, 1 μL) was added for quenching, and the mixture was shaken for 5 minutes at 90° C. The DNA obtained by centrifugation under reduced pressure was combined with 8 μl of a loading color (solution of *FUGENE* Red in DMF) and dissolved, and then shaken for 20 minutes at 94° C. Immediately after this, the mixture was cooled rapidly to 0° C., and a 2 μl aliquot was subjected to an electrophoresis on a 6% denature polyacrylamide gel using a HITACHI 5500-S DNA sequencer system.

DNA fragment (pUC-I′) = experiment: Alkylation of pUC-I′ DNA within a short period (5 minutes, 1 hour, 2 hours), gel electrophoresis; format: biochemical
Description: In order to investigate the difference in the reactivity between Compounds 1 and 13 in more detail, the alkylation within a short period was analyzed.
as §1, with “FIG. 2” for “FIG. 1”, “for 5 minutes, 1 hour and 2 hours, respectively” for “for 24 hours”
as §2, with “After each reaction time, a bovine” for “A bovine”

[2] = system: DNA oligomers 5′-CAAGTCAGAG/5′-CTCTGACTTG; experiment: Short chain DNA (10 bp) alkylation followed by HPLC; format: biochemical; conditions: for alkylation of DNA oligomer: 150 μM agent and DNA, 23° C.
From the text: In order to clarify the reactive base site in an alkylation site, the alkylation with Polyamides 12, 13 and 14 was investigated by an HPLC using DNA oligomers 5′-CAAGTCAGAG/5′-CTCTGACTTG as substrates. […] Also by decomposing the oligomers by heating and investigating the degradation products of the oligomers by the method which the inventors reported previously (Tetrahedron Lett. 1990, 31, 7197; Tetrahedron Lett. 1993, 34, 2179 and the like), it was proven that the alkylation reaction occurred at the site indicated by an arrow. […] These findings may be attributable to the difference in the reactivity between the Du and the Du86 similarly to the reactivity on the long chain DNA.
A DNA oligomer synthesized by a DNA synthesizer was employed. To 50 μl in total of 50 mM sodium cacodylate buffer (pH7.0), a standard reaction solution containing 150 μM of the double-stranded DNA fragment, 10% (v/v) DMF and each agent of Compounds 1, 12, 13 and 14 (150 μM) was added in a microcentrifugation tube (Eppendorf) and allowed to stand at 23° C.
The advancement of the reaction was ensured by an HPLC using a *CHEMCOBOND* 5-ODS-H column (4.6×150 mm). The HPLC conditions are shown below.
[Linear gradient of 50 mM ammonium formate: 0-50% acetonitrile (0 to 40 min), flow rate: 1.0 mL/min, 254 nm].

[3] = system: GFP protein expression coding region; experiment: Inhibition of mRNA transcription in GFP coding region with T7 promoter and T7 polymerase; format: biochemical; conditions: early stage experiment
From the text: The condition of the experiment has not been established yet, and a further detailed analysis of the transcription inhibition mechanism is required. […] It leads to a breakthrough toward the development of a novel knockout gene method.

long chain DNA (pUC-II) = experiment: Long chain DNA (pUC-II) alkylation, 24 hours, sequence gel electrophoresis; format: biochemical; conditions: nM concentrations, 23° C.
Description: For the purpose of comparing the hairpin polyamides 14, 15 and 16, the DNA alkylation reaction employing a long chain DNA (pUC-II) was conducted.
With this regard, the inventors considered that this problem can be solved by replacing the Du86 with CBI: 1,2,9,9a-tetrahydrocyclopropa[c]benz[e]indole-4-one (22), the method for synthesizing which had already been reported by Boger et al. (J. Org. Chem. 1992, 57, 2873; J. Org. Chem. 1995, 60, 1271 and the like). The benefit of using CBI includes the ability of using commercially available 1,3-dihydroxynaphthalene as a starting material and the ability of providing both enantiomers by an optical resolution. Accordingly, the inventors newly synthesized Compound 23 by replacing the Du86 part of Compound 16 with CBI. Then the inventors evaluated the DNA-alkylating ability using a long chain DNA (pUC-II).
A DNA fragment (pUC-II) was synthesized by a PCR method using pUC 18 as a template together with a 5′-texas red-labeled 21 base pair primer: 5′-[…]-3′ (pUC 18 reverse, 1861-1881) and 18 base pair primer: 5′-TGTAAAACGACGGCCAGT-3′ (pUC18 forward, 378-395). The resultant DNA fragments were purified by filtration through a Suprec-02, and then examined for the UV absorption to determine the respective concentrations.
as §1, with “fragment (pUC-II)” for “fragment (pUC-I′)”, “FIG. 4” for “FIG. 1”
A bovine thymus DNA (1 mM, 1 μL) was added for quenching, and the mixture was shaken for 5 minutes at 90° C. The DNA obtained by centrifugation under reduced pressure was combined with 8 μl of a loading color (solution of *FUGENE* Red in DMF) and dissolved, and then shaken for 20 minutes at 94° C. […]

[4] = system: 39 human cultured cancer cell lines; experiment: Cytostatic activity on 39 human cultured cancer cell lines; format: cell-based; parameters: mean IC50 values: scale not given here; conditions: for mean IC50 values: mean over 39 human cancer cell lines
From the text: The first is the proportional relationship between the DNA-alkylating ability and the cytostatic activity (FIG. 8). For example, the mean IC50 values of ImPyDu (−4.59), ImPyDu86 (−5.95) and ImPyLDu86 (−8.25) were reduced gradually as the DNA-alkylating ability was increased.
A further interesting result was obtained when comparing the fingerprint patterns indicating the cytostatic activity of the hairpin sequence-specific alkylating agents ImPyPy-γ-ImPyLDu 36 (13) and ImPyPy-γ-ImPyPyLDu 36 (14) (FIG. 9). In general, a high correlation coefficient (r=0.75 to 1.0) is known to be obtained when comparing the fingerprint patterns between the drugs whose action mechanisms are analogous to each other, and in fact an extremely high analogy was observed among a DNA intercalator, doxorubicin, daunorubicin and epirubicin. […] The influence on the cytostatic activity attributable only to the difference in the base sequence-recognizing ability in spite of the analogy in the structure as observed with these Compound 13 and 14 has never been reported, and thus is one of the most important findings.

[5] = system: DNA sequence PyG(A/T) CPu; conditions: cited from earlier work

COC(=O)[C@]1(C)NC2=C(C1=O)[C@@]13C[C@@H]1CN(C(=O)c1cc(NC(=O)c4cc(NC(=O)c5nc(NC(=O)CCCNC(=O)c6cc(NC(=O)c7cc(NC(=O)c8nc(NC(C)=O)cn8C)cn7C)cn6C)cn5C)cn4C)cn1C)C3=CC2=O [Compound 1, ImPyPy-γ-ImPyPyDu]
reaction efficiency of sequence-specific DNA alkylation [1]: 7%
time for sequence-specific alkylation of DNA to complete [1]: ≥ 1 week
sequence-specific alkylation of long chain DNA (long chain DNA (pUC-I′); 24 hours): reacted selectively at G in the 5′-GTCAG-3′ sequence in Site 3
alkylation after short reaction time (DNA fragment (pUC-I′); one hour): no reaction

COC(=O)C1=C(C)CC2=C1[C@@]13C[C@@H]1CN(C(=O)/C=C/c1cc(NC(=O)c4nc(NC(=O)CCCNC(=O)c5cc(NC(=O)c6cc(NC(=O)c7nc(NC(C)=O)cn7C)cn6C)cn5C)cn4C)cn1C)C3=CC2=O [Compound 13, AcImPyPy-γ-ImPyLCPI]
reactivity on the DNA oligomers compared with other compounds [2]: dramatically increased reactivity
alkylation of DNA oligomer ([2]; after 5 minutes): 75%
mRNA produced by transcription inhibition due to alkylation of the adenine in the 387 nt position [3]: observed successfully
consumption of starting DNA (long chain DNA (pUC-I′); 100 nM (lane 9), 24 hours): disappearance of almost all starting DNA
sequence-specific alkylation of long chain DNA (long chain DNA (pUC-I′); 24 hours): reacted at A in the GTCAG sequence of the site 3
alkylation after short reaction time (DNA fragment (pUC-I′); 5 minutes): caused the alkylation

COC(=O)c1c(C)[nH]c2c1[C@@]13C[C@@H]1CN(C(=O)/C=C/c1cc(NC(=O)c4cc(NC(=O)c5nc(NC(=O)CCCNC(=O)c6cc(NC(=O)c7cc(NC(=O)c8nc(NC(C)=O)cn8C)cn7C)cn6C)cn5C)cn4C)cn1C)C3=CC2=O [Compound 14, AcImPyPy-γ-ImPyPyLCPI]
reactivity on the DNA oligomers compared with other compounds [2]: almost equivalent to Compound 1 and poorer than Compound 13
alkylation of DNA oligomer ([2]; after 2 hours): 46%
sequence-specific alkylation of pUC-II DNA (long chain DNA (pUC-II)): sequence-specific alkylation was observed at 5′-TGACCA-3′; also recorded: reactivity is far lower than those of Compounds 15 and 16
sequence-specific alkylation of long chain DNA (long chain DNA (pUC-I′); 24 hours): slightly reduced reactivity when compared with Compound 13

COC(=O)c1c(C)[nH]c2c1[C@@]13C[C@@H]1CN(C(=O)/C=C/c1cc(NC(=O)c4cc(NC(=O)c5nc(NC(=O)CCNC(=O)c6cc(NC(=O)c7cc(NC(=O)c8nc(NC(=O)c9nccn9C)cn8C)cn7C)cn6C)cn5C)cn4C)cn1C)C3=CC2=O [Compound 16, H-ImImPyPy-γ-ImPyPyLCPI]
sequence-specific alkylation of pUC-II DNA (long chain DNA (pUC-II)): sequence-specific alkylation was observed at 5′-TGACCA-3′

AcImImPyPy-γ-ImPyPyLDu86 [Compound 15]
sequence-specific alkylation of pUC-II DNA (long chain DNA (pUC-II)): sequence-specific alkylation was observed at 5′-TGACCA-3′

AcImPyPy-γ-ImPyPyCPI [Compound 12]
reactivity on the DNA oligomers compared with other compounds [2]: extremely poorer when compared with Compound 1
alkylation of DNA oligomer ([2]; after 17 hours): 13%
sequence-specific alkylation of long chain DNA (long chain DNA (pUC-I′); 24 hours): not observed
alkylation of long chain DNA at elevated concentration (long chain DNA (pUC-I′); 10 μM): no occurrence of the alkylation

ImPyDu
mean IC50 values [4]: −4.59

ImPyDu86
mean IC50 values [4]: −5.95

ImPyLDu86
mean IC50 values [4]: −8.25
alkylation induced, share of the compound employed [5]: 70%

ImPyPyLDu86
change of cytostatic activity due to the vinyl linker between polyamide and Du86 [4]: dramatic increase in the cytostatic activity

PyPyLDu86
change of cytostatic activity due to the vinyl linker between polyamide and Du86 [4]: dramatic increase in the cytostatic activity

PyPyPyLDu86
change of cytostatic activity due to the vinyl linker between polyamide and Du86 [4]: dramatic increase in the cytostatic activity
